# Measurements as given in US6720322B2, “Butyne diol derivatives” (Actelion Pharamceuticals Ltd., priority 1999, dated 2004).
# How the values were obtained:
# [1] = biological target: T1, human recombinant ETB receptors (Homo sapiens, UniProt P24530); test: Inhibition of [125I]ET-1 binding to membranes of CHO cells expressing human recombinant ETB receptors; note: 2.5% DMSO
# T1 construct: expressed in transfected cells; host or cells: CHO cells (microsomal membranes)
# T1 sequence (P24530 27-442): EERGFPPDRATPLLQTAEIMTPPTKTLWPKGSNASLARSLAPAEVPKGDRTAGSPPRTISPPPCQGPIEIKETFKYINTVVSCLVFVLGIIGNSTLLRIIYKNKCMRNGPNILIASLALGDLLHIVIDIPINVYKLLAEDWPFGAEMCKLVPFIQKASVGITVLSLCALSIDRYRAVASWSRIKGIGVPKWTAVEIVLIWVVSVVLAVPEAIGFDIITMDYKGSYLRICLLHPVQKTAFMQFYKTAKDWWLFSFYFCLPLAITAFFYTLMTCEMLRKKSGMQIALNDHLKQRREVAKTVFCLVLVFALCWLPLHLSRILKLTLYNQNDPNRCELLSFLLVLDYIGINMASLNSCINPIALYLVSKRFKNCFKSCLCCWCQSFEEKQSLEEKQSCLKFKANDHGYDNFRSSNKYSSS
# Description: (§1) 1) Inhibition of Endothelin Binding to Membranes from CHO Cells Carrying Human ET Receptors:
# (§2) For competition binding studies, membranes of CHO cells expressing human recombinant ETA or ETB receptors were used.
# (§3) The assay was performed in 200 uL 50 mM Tris/HCl buffer, pH 7.4, including 25 mM MnCl2, 1 mM EDTA and 0.5% (w/v) BSA in polypropylene microtiter plates. […] After two h, the membranes were filtered on filterplates containing GF/C filters (Unifilterplates from Canberra Packard S.A. Zürich, Switzerland). To each well, 50 uL of scintillation cocktail was added (MicroScint 20, Canberra Packard S.A. Zürich, Switzerland) and the filter plates counted in a microplate counter (TopCount, Canberra Packard S.A. Zürich, Switzerland).
# (§4) All the test compounds were dissolved, diluted and added in DMSO.
# [2] = biological target: T2, human recombinant ETA receptors (Homo sapiens, UniProt P25101); test: Inhibition of [125I]ET-1 binding to membranes of CHO cells expressing human recombinant ETA receptors; note: 2.5% DMSO
# T2 construct: expressed in transfected cells; host or cells: CHO cells (microsomal membranes)
# T2 sequence (P25101 21-427): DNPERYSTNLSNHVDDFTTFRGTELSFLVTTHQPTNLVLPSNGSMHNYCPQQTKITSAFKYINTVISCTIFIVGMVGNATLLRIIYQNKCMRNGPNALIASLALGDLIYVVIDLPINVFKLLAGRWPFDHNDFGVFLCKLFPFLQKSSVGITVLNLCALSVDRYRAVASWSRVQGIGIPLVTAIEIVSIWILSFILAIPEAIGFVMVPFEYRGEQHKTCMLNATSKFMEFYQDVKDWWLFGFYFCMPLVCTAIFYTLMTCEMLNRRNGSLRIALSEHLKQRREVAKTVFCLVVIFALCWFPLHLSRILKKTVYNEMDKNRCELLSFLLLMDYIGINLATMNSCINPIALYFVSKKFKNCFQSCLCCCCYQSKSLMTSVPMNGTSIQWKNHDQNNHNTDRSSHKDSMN
# Description: as §1, §2, §3, §4
# [3] = biological target: T3, rat tracheal rings (ETB receptors) (Rattus norvegicus, UniProt P21451); test: Inhibition of sarafotoxin S6c-induced contraction of isolated rat tracheal rings; assay type: cell-based; settings: contraction induced by sarafotoxin S6c, 10 min incubation with the test compound; read-out: pA2 trachea (converted)
# T3 construct: The thoracic aorta or trachea were excised, dissected and cut in 3-5 mm rings; from tissue; host or cells: tracheal rings of adult Wistar rats, epithelium removed
# T3 sequence (P21451 27-442): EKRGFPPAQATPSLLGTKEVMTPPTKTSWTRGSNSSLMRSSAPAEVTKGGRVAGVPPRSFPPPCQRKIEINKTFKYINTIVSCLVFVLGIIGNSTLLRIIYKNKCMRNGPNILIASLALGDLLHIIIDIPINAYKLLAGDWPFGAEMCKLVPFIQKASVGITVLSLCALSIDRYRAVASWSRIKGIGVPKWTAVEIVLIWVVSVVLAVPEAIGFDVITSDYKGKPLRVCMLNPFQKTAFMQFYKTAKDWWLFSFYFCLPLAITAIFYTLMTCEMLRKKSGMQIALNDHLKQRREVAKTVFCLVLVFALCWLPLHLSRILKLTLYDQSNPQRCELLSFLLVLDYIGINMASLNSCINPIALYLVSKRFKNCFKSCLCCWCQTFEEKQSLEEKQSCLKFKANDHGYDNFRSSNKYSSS
# [4] = biological target: T4, rat aortic rings (ETA receptors) (Rattus norvegicus, UniProt P26684); test: Inhibition of endothelin-1-induced contraction of isolated rat aortic rings
# T4 sequence (P26684 21-426): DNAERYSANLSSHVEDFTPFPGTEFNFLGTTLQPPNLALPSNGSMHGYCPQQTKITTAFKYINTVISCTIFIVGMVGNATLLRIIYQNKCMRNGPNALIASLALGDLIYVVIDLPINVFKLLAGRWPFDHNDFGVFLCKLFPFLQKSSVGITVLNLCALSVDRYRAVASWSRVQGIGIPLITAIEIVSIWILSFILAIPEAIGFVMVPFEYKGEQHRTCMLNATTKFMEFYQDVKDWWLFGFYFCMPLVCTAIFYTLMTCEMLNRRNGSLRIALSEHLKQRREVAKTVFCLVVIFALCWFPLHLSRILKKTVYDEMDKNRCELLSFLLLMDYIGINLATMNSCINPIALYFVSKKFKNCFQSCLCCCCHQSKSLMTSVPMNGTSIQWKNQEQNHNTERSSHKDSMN
IC50 [1],IC50 [2],melting point,Structure (SMILES),Kb [3],Kb [4]
36 nM,79 nM,,"COc1cc(OC)nc(OCC#CCOc2nc(-c3ccncc3)nc(NS(=O)(=O)c3ccc(C(C)C)cn3)c2Oc2ccccc2OC)n1 [Example 18, 5-isopropyl-N-[6-(4-(4,6-dimethoxy-2-pyrimidinyloxy)-2-butynyloxy)-5-(o-methoxyphenoxy)-2-(4-pyridyl)-4-pyrimidinyl]-2-pyridine sulfonamide]",,
44 nM,230 nM,,"COc1cc(OC)nc(OCC#CCOc2nc(-c3ccncc3)nc(NS(=O)(=O)c3ccc(C(C)(C)C)cc3)c2Oc2ccccc2OC)n1 [Example 21, 4-tert.-butyl-N-[6-(4-(4,6-dimethoxy-2-pyrimidinyloxy)-2-butynyloxy)-5-(o-methoxyphenoxy)-2-(4-pyridyl)-4-pyrimidinyl]-benzene sulfonamide]",,
,,163 to 165 °C,"COc1ccccc1Oc1c(NS(=O)(=O)c2ccc(C(C)C)cn2)nc(-c2ccncc2)nc1OCC#CCOC(=O)Nc1cccc(C)c1 [Example 54, m-tolyl-carbamic acid 4-[6-(5-isopropyl-pyridine-2-sulfonylamino)-5-(2-methoxy-phenoxy)-2-pyridin-4-yl-pyrimidin-4-yloxy]-but-2-ynyl ester]",,

# Second part, the compound before the results:
Structure (SMILES),IC50 [1],IC50 [2],melting point,Kb [3],Kb [4]
"Cc1ccc(-c2c(NS(=O)(=O)c3ccc(C(C)C)cn3)nc(-c3ccncc3)nc2OCC#CCO)cc1 [Example 11d, 5-isopropyl-N-[6-(4-hydroxy-2-butynyloxy)-5-(p-tolyl)-2-(4-pyridyl)-4-pyrimidinyl]-2-pyridine sulfonamide]",97 nM,49 nM,,93.3 nM,89.1 nM
"COc1ccccc1Oc1c(NS(=O)(=O)c2ccc(C(C)(C)C)cc2)nc(-c2ccncc2)nc1OCC#CCOc1ncccn1 [Example 19, 4-tert.-butyl-N-[6-(4-(2-pyrimidinyloxy)-2-butynyloxy)-5-(o-methoxyphenoxy)-2-(4-pyridyl)-4-pyrimidinyl]-benzene sulfonamide]",45 nM,112 nM,,24 nM,> 10000 nM
COc1ccccc1Oc1c(NS(=O)(=O)c2ccc(C(C)C)cn2)nc(C)nc1OCC#CCOC(=O)Nc1ccccc1 [Example 70],375 nM,94 nM,,,
"COCC#CCOc1nc(N2CCOCC2)nc(NS(=O)(=O)c2ccc(C(C)C)cn2)c1Oc1ccccc1OC [Example 94, 5-isopropyl-N-[6-(4-methoxy-2-butynyloxy)-5-(o-methoxyphenoxy)-2-(N-morpholino)-4-pyrimidinyl]-2-pyridine sulfonamide]",107 nM,13 nM,,,
